Legend:
[1] = molecular target: T1, TrxR (Homo sapiens, UniProt Q16881); assay: TrxR activity by DTNB reduction assay in SHSY5Y cell lysate; assay type: biochemical
T1 sequence (Q16881 1-649): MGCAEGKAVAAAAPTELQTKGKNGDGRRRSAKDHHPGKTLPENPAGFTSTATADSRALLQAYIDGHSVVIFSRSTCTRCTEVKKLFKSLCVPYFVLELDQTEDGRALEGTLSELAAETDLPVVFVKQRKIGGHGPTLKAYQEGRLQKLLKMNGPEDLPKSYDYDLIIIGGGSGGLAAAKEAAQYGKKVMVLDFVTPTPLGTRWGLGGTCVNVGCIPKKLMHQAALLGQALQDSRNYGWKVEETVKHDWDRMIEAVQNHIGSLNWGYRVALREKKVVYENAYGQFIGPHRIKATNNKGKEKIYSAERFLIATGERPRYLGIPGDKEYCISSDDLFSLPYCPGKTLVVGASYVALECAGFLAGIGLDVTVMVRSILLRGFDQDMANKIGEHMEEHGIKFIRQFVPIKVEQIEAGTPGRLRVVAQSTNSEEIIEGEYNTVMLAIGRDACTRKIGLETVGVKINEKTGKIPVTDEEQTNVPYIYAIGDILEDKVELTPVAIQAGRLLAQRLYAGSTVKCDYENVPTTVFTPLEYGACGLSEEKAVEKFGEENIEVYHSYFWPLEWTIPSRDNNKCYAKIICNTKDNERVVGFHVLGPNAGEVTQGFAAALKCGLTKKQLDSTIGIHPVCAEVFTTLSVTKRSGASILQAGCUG
Description: Determination of TrxR activity in SHSY5Y cell lysate. TrxR activity in cell lysate was measured in 96-well plates using previously described methods[27]^,[28]. For TrxR activity measurement, compounds of different concentrations were incubated with 50 µg of cell lysate and 200 µM NADPH in a volume of 100 µL of 50 mM Tris–HCl and 1 mM EDTA, pH 7.5 (TE buffer), for different time points in 96-well plates at room temperature. […] TrxR activity was calculated as a percentage of enzyme activity of that of DMSO vehicle treated sample.

[2] = molecular target: T2, hCA I (Homo sapiens, UniProt P00915); assay: Stopped-flow CO2 hydration CA inhibition assay, hCA I; assay type: biochemical; details: recombinant enzyme, 15 min pre-incubation
T2 construct: made in house
T2 sequence (P00915 whole entry): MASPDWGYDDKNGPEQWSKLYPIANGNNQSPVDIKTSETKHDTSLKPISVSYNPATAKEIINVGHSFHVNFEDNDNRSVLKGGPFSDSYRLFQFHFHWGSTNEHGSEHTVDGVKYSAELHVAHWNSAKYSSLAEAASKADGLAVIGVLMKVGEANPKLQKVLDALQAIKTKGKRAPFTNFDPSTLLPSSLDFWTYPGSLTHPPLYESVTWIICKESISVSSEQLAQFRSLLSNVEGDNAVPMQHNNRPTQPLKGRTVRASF
Description: (§1) An Applied Photophysics stopped-flow instrument has been used for assaying the CA catalysed CO2 hydration activity[22]. Phenol red (at a concentration of 0.2 mM) has been used as indicator, working at the absorbance maximum of 557 nm, with 20 mM Tris (pH 8.3) as buffer, and 20 mM Na2SO4 (for maintaining constant the ionic strength), following the initial rates of the CA-catalysed CO2 hydration reaction for a period of 10–100 s. The CO2 concentrations ranged from 1.7 to 17 mM for the determination of the kinetic parameters and inhibition constants. […] The uncatalysed rates were determined in the same manner and subtracted from the total observed rates. Stock solutions of inhibitor (0.1 mM) were prepared in distilled-deionised water and dilutions up to 0.005 nM were done thereafter with the assay buffer. Inhibitor and enzyme solutions were pre-incubated together for 15 min at room temperature prior to assay, in order to allow for the formation of the E–I complex. The inhibition constants were obtained by non-linear least-squares methods using PRISM 3 and the Cheng-Prusoff equation, as reported earlier, and represent the mean from at least three different determinations.

[3] = molecular target: T3, hCA II (Homo sapiens, UniProt P00918); assay: Stopped-flow CO2 hydration CA inhibition assay, hCA II; assay type: biochemical; details: recombinant enzyme, 15 min pre-incubation
T3 construct: made in house
Description: as §1

[4] = test system: HT-1080 (human fibrosarcoma); assay: MTT cytotoxicity assay, HT-1080; assay type: cell-based
Description: (§2) About 2000–4000 cells per well (depending on line nature) were placed in 96-well plates and after 24 h compounds were added to the wells. Untreated cells were used as a control. The plates were incubated for 48 h, 37 °C, and 5% CO2. The number of surviving cells was determined using 3-(4,5-dimethylthiazol-2-yl)-2,5-diphenyltetrazolinium bromide (MTT). MTT-test: after incubating culture medium was removed and 200 µL fresh medium with 20 µL MTT (2 mg/mL in HBSS) was added in each well of the plate. After incubation (3 h, 37 °C, 5% CO2), the medium with MTT was removed and 200 µL DMSO were added at once to each sample. The samples were tested at 540 nm on Thermo Scientific Multiskan EX microplate photometer. The half-maximal inhibitory concentration (IC50) of each compound was calculated using Graph Pad Prism® 3.0 (GraphPad Software, La Jolla, CA).

[5] = test system: SHSY5Y (human neuroblastoma); assay: MTT cytotoxicity assay, SHSY5Y; assay type: cell-based; details: 48 h incubation
Description: as §2

[6] = test system: MCF-7 (breast adenocarcinoma); assay: MTT cytotoxicity assay, MCF-7; assay type: cell-based, human
Description: as §2

[7] = molecular target: T4, hCA IX (Homo sapiens, UniProt Q16790); assay: Stopped-flow CO2 hydration CA inhibition assay, hCA IX; assay type: biochemical; details: recombinant enzyme, 15 min pre-incubation
T4 construct: made in house
Description: as §1

[8] = molecular target: T5, hCA XII (Homo sapiens, UniProt O43570); assay: Stopped-flow CO2 hydration CA inhibition assay, hCA XII; assay type: biochemical; details: recombinant enzyme, 15 min pre-incubation
T5 construct: made in house
T5 sequence (O43570 25-354): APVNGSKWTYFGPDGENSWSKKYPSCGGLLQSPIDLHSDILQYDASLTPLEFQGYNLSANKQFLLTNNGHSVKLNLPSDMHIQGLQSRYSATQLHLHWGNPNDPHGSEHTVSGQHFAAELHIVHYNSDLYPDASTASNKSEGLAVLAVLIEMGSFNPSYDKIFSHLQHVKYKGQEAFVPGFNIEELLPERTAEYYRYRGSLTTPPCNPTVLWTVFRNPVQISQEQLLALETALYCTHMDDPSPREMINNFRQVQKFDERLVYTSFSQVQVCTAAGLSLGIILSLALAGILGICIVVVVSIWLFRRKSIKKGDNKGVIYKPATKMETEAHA
Description: as §1

[9] = Homo sapiens, HT-1080, 48 h incubation
[10] = Homo sapiens, MCF7, 48 h incubation

| Compound | IC50 [1] [µM] | Ki [2] [µM] | Ki [3] [µM] | IC50 ([4]; 48 h incubation) [µM] | IC50 [5] [µM] | IC50 ([6]; 48 h incubation) [µM] | IC50 [4, 9] [µM] | IC50 ([5]; Homo sapiens, SH-SY5Y) [µM] | IC50 [6, 10] [µM] | Ki [7] [nM] | Ki [8] [nM] |
| --- | --- | --- | --- | --- | --- | --- | --- | --- | --- | --- | --- |
| 1-(2,2-Dioxido-1,2-benzoxathiin-6-yl)-4-(4-fluorophenyl)-1H-1,2,3-triazole [Compound 1b] | 40 | > 10 | > 10 | – | – | – | – | – | – | – | – |
| 1-(2,2-Dioxido-1,2-benzoxathiin-6-yl)-5-(4-fluorophenyl)-1H-1,2,3-triazole [Compound 1d] | 125 | > 10 | > 10 | 7.9 | 18.5 | 50 | – | – | – | – | – |
| O=S1(=O)C=Cc2cc(-n3cc(-c4ccc(Cl)cc4)nn3)ccc2O1 [Compound 1a, 4-(4-Chlorophenyl)-1-(2,2-dioxido-1,2-benzoxathiin-6-yl)-1H-1,2,3-triazole] | – | – | – | – | – | – | 11 | 22 | 1.8 | 7.8 | 17.7 |
| O=S1(=O)C=Cc2cc(-c3nnnn3-c3ccccc3)ccc2O1 [Compound 1c, 5-(2,2-Dioxido-1,2-benzoxathiin-6-yl)-1-phenyl-1H-tetrazole] | – | – | – | – | – | – | 12.3 | 18.4 | 101 | 8.5 | 7.1 |
